Experimental data published in US20240293558A1, “KRAS INHIBITOR CONJUGATES” (Erasca, Inc., priority 2021, published 2024).
Like-named read-outs stand apart in the source and are kept apart here.

What was measured:
Assay type in all cases: cell-based
KRAS G12D [1] = biological target: T1, KRAS G12D (Homo sapiens, UniProt P01116, G12D); assay: Degradation of KRas G12D in AsPC-1 cells, Western blot; design: endogenous in cells; host or cells: AsPC-1 (ATCC CRL-1682); conditions: ASPC-1 cell line after 24 h treatment (FIG. 11); read-out: KRAS wild type degradation DC50
WT KRAS = biological target: T2, WT KRAS (Homo sapiens, UniProt P01116); assay: Degradation of KRAS wild type (WT) in HT-29 cells, Western blot; conditions: HT-29 cell line, after 24 h treatment (FIG. 12)
T2 construct: endogenous in cells; host or cells: HT-29 (ATCC HTB-38)
Procedure: This Example illustrates that embodiments of the present application degrade KRAS WT
HT-29 cells (ATCC HTB-38) expressing WT KRAS were grown in McCoy's 5a medium modified (ATCC cat #30-2007) supplemented with 10% fetal bovine serum, and Penicillin/Streptomycin. Cell were plated in 6-well tissue culture plates at a density of 1 million cells/well and allowed to attach for overnight. Diluted compounds were then added in a final concentration of 0.2% DMSO. After 24 hour treatment, the medium was removed, and the plate was washed three times with ice-cold PBS. 50ul of the RIPA cell lysis buffer (ThermoFisher 89901) supplemented with protease inhibitor (Roche 4693116001) and Phosphatase Cocktail A and B inhibitor (Bimake B15002; Bimake Houston TX) was added to each well, the adherent cells were scratched off, and transferred into pre-cold centrifuge tubes. […] The protein concentration of the supernatant was determined with bicinchoninic acid method (BCA) (ThermoFisher 23227). […]
The levels of KRAS protein were determined by Western blotting. […] The signal intensities of bands were quantified by Li-Cor Odyssey CLX.
The KRAS signals were normalized to the GAPDH signal for each lane and percent of DMSO values were calculated to determine the degradation of KRAS upon the compound treatment.

KRAS G12D [2] = biological target: T1, KRAS G12D; assay: Degradation of KRas G12D in AsPC-1 cells, Western blot; design: endogenous in cells; host or cells: AsPC-1 (ATCC CRL-1682)
Procedure: This Example illustrates that the compounds presented herein degrade KRAS G12D.
AsPC-1 cells (ATCC CRL-1682) expressing G12D were grown in RPMI-1640 medium supplemented with 10% fetal bovine serum, and Penicillin/Streptomycin. Cell were plated in 6-well tissue culture plates at a density of 1 million cells/well and allowed to attach for overnight. Diluted compounds were then added in a final concentration of 0.2% DMSO. After 24 hour treatment, the medium was removed, and the plate was washed three times with ice-cold PBS. 50ul of the RIPA cell lysis buffer (ThermoFisher 89901) supplemented with protease inhibitor (Roche 4693116001) and Phosphatase Cocktail A and B inhibitor (Bimake B15002; Bimake Houston TX) was added to each well, the adherent cells were scratched off, and transferred into pre-cold centrifuge tubes. After vigorous vortex, the tubes were incubated on ice for 30 minutes, centrifuged 14,000 rpm for 10 min at 4° C., and the supernatant were transferred into fresh tubes kept on ice. The protein concentration of the supernatant was determined with bicinchoninic acid method (BCA) (ThermoFisher 23227). Samples were prepared to the final concentration of 30ug in 20ul using NuPAGE LDS Sample Buffer (Invitrogen NP0007), NuPAGE Sample Reducing Agent (Invitrogen NP0009), and RIPA cell lysis buffer, and boiled at 95° C. for 15 minutes in water bath.
The levels of KRAS protein and phosphorylated ERK1/2 were determined by Western blotting. 20 μL of protein sample mixture was loaded into each well of 1.5 mm 4-12% Bis-Tris gel (Invitrogen NP0335), and run at 80V in stacking gel and 120 V in separating gel for about 2 h in MOPS running buffer (Invitrogen NP0001). The gel was transferred to the membrane (20V, 7 min) with Invitrogen iBlot2, and blocked with Li-Cor blocking buffer (LI-COR 927-60001; Li-Cor Biotechnology, Lincoln NE) for at least 1 h at room temperature. Primary antibodies diluted in the blocking buffer were added and incubated at 4° C. overnight. As the primary antibodies, KRAS (Proteintech 12063-1-AP), G12D Mutant Specific KRAS (Cell Signaling Technology 14429S), ERKI1/2 (Cell Signaling Technology 4695S), Phospho-ERKI1/2 (Cell Signaling Technology 4370S), and GAPDH (Millipore MAB374) were used. The membrane was washed 4 times with TBST (0.10% Tween20®; ThermoFisher 28360) for 5 minutes at room temperature, then incubated with Li-Cor anti-rabbit-800 (LI-COR 926-68070) and anti-mouse-680 (LI-COR-926-32211) diluted in Li-Cor blocking buffer with the ratio of 1:15,000 to visualize the primary antibodies for 1 hour at room temperature. Then membrane was washed 4 times with TBST (0.1% Tween20) 5 minutes. The signal intensities of bands were quantified by Li-Cor Odyssey CLX.
The KRas and phosphor-ERK1/2 signals were normalized to the GAPDH signal for each lane and percent of DMSO values were calculated to determine the degradation of KRas and the inhibition of ERK1/2 phosphorylation upon the compound treatment.

T1 sequence (P01116 1-188 isoform P01116-2 G12D): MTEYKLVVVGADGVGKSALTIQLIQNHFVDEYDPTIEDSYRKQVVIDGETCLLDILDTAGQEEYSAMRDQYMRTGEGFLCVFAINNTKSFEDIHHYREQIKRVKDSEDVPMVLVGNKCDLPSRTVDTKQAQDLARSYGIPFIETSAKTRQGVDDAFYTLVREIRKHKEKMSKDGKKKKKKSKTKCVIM
T2 sequence (P01116 1-188 isoform P01116-2): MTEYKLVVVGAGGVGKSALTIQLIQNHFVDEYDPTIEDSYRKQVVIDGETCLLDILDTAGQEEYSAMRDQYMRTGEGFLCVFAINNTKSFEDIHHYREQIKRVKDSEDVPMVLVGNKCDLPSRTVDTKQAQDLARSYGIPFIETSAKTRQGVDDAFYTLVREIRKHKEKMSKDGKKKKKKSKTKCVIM

| Compound | DC50 (KRAS G12D [1]) [nM] | DC50 (WT KRAS) [nM] | Dmax (KRAS G12D [2]; ASPC1, AsPc-1 cell line after 24 h treatment) [%] | KRAS G12D degradation (Western blot), result in words (KRAS G12D [2]; AsPC-1 cells, FIGS. 1-5) | DC50 (KRAS G12D [2]; AsPc-1 cell line after 24 h treatment) [nM] |
| --- | --- | --- | --- | --- | --- |
| C[C@H](NC(=O)[C@@H]1C[C@@H](O)CN1C(=O)[C@@H](NC(=O)CCOCCCN1CCC[C@H]1COc1nc(N2CC3CCC(C2)N3)c2cc(C(F)(F)F)c(-c3ccc(F)c4sc(N)c(C#N)c34)c(F)c2n1)C(C)(C)C)c1ccc(-c2c(F)cccc2F)cc1 (single isomer, unassigned) [Example 20] | 8.2 | 426 | – | – | – |
| Cc1ncsc1-c1ccc([C@H](C)NC(=O)[C@@H]2C[C@@H](O)CN2C(=O)[C@@H](NC(=O)CCOCCCN2CCCC2COc2nc(N3CC4CCC(C3)N4)c3cc(Cl)c(-c4ccc(F)c5sc(N)c(C#N)c45)c(F)c3n2)C(C)(C)C)cc1 (stereo partly drawn) [Example 8, (2S,4R)-1-[(2S)-2-[3-[3-[2-[[7-(2-amino-3-cyano-7-fluoro-benzothiophen-4-yl)-6-chloro-4-(3,8-diazabicyclo[3.2.1]octan-3-yl)-8-fluoro-quinazolin-2-yl]oxymethyl]pyrrolidin-1-yl]propoxy]propanoylamino]-3,3-dimethyl-butanoyl]-4-hydroxy-N-[(1S)-1-[4-(4-methylthiazol-5-yl)phenyl]ethyl]pyrrolidine-2-carboxamide] | – | – | 95 | Favorable results | 71 |
